Among the data in ChEMBL document CHEMBL3886681, “Rotenone derivatives and a use thereof” (2016) are IC50 values, retold here.

SMILES strings stand for the structures.

This test concerns the target T1, Pancreatic triacylglycerol lipase (Sus scrofa, UniProt P00591).
T1 sequence (P00591 whole entry): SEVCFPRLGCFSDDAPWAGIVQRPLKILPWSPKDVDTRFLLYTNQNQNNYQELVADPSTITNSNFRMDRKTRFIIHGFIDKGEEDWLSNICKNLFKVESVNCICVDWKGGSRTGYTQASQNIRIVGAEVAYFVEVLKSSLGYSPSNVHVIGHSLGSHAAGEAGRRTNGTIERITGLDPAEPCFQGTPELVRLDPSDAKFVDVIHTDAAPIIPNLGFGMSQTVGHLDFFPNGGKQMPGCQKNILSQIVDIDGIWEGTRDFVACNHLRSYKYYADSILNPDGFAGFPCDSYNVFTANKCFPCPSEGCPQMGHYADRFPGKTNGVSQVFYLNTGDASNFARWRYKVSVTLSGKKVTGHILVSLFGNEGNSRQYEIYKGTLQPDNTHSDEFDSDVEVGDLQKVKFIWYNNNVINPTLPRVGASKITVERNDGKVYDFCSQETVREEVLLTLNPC
Kind of test: Inhibition Assay: Particularly, pancreatic lipase inhibiting activity was measured by the conventional method known to those in the art (Kim, J. H.; Kim, H. J.; Park, H. W.; Youn, S. H.; Choi, D. Y.; Shin, C. S. FEMS Microbiol. Lett. 2007, 276, 93.). To prepare the enzyme buffer, 30 mL (10 units) of pig pancreatic lipase solution (Sigma, St. Louis, Mo.) and 1 mM EDTA (pH 6.8) were mixed with 10 mM MOPS (morpholinepropanesulphonic acid), which was added to 850 mL of tris buffer (100 mM Tris-HCl and 5 mM CaCl2, pH 7.0). Then, 100 mL of the rotenoisin A or B of the present invention was mixed with the prepared enzyme buffer at the experimental concentration. […] 20 mL of substrate solution containing 20 mM p-nitrophenylbutyrate dissolved in dimethyl formaide was added to the enzyme buffer, followed by culture for 15 minutes at 37° C. that was the temperature adequate for enzyme reaction.

`C=C(C)[C@H]1Cc2c(ccc3c2OC2COc4cc(OC)c(OC)cc4C2[C@@]32CO2)O1` (stereo partly specified): the IC50 was 6.3 µM. In other words, the single-digit micromolar range.
